# Laboratory results as given in US7582678B2, “Use of branched-chain fatty acids and derivatives thereof for the treatment of pain” (D-PHARM Limited, priority 1998, dated 2009).
# Marks after values point to notes of the source that are not given here.
# How the values were obtained:
# Male CD-1 mice = experiment: Tail flick assay (radiated heat, acute pain) in mice; details: for size of analgesic effect, ranking among tested compounds: tail flick, Table 1;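 on all read-outs here: infrared heat aimed at the tail of restrained mice, time until tail flick recorded as mean of 2-3 readings, 4-8 animals per group, compared with vehicle-treated animals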
# Protocol: The analgesic effect of branched-chain fatty acids (BFAs) and their DP-BFAs derivatives was tested by using the tail flick assay in mice.
# This model uses radiated infrared (IR) heat source that is directed to the tail of a restrained mouse. The threshold of tolerance for heat is indicated by a time-meter, which is stopped instantaneously when the tail flicks. This time is defined as ‘withdrawal latency’.
# Male CD-1 mice weighing around 25-30 grams (4-8 animals per each dose of the tested compound) were used. The animals were put in clear plastic cages above an IR source (7371-Plantar™ Analgesia Instrument, UGO Basile), where the IR generator is placed directly underneath the tail of the mouse and the light beam is focused on the proximal third of the tail.
# The withdrawal latency, namely the time interval from the starting of the infrared radiation until the animal feels pain and flicks its tail is determined. The initial withdrawal latency for each animal was measured at t=0 and was determined as its baseline threshold.
# In order to determine the analgesic effect of a tested drug, the drug (10 to 200 mg/kg body weight) was administered to mice either orally (p.o.) or by intraperitoneal (i.p.) or subcutaneous (s.c.) injection. Withdrawal latency was determined at different time points post-administration of the drug as indicated. Each reading was performed 2-3 times and the mean-value was calculated. […] The withdrawal latency at each time point post injection is the average of 4-8 animals per group. […] Paired T-test was used to assess significance in comparison to the baseline value (t=0). Morphine was used as a positive control (2 animals per dose).
# [1] = I.P., 50 mg/kg, 15 min post-injection
# [2] = I.P., 50 mg/kg, 45 min post-injection
# [3] = I.P., 50 mg/kg, 75 min post-injection
# [4] = I.P., 50 mg/kg, 105 min post-injection
# [5] = I.P., 50 mg/kg, 135 min post-injection
# [6] = I.P., 50 mg/kg, 285 min post-injection
# [7] = I.P., 50 mg/kg, 345 min post-injection
# [8] = I.P., 100 mg/kg, 15 min post-injection
# [9] = I.P., 100 mg/kg, 45 min post-injection
# [10] = I.P., 100 mg/kg, 75 min post-injection
# [11] = I.P., 100 mg/kg, 105 min post-injection
# [12] = I.P., 100 mg/kg, 135 min post-injection
# [13] = I.P., 100 mg/kg, 285 min post-injection
# [14] = I.P., 100 mg/kg, 345 min post-injection
# [15] = I.P., 200 mg/kg, 15 min post-injection
# [16] = I.P., 200 mg/kg, 45 min post-injection
# [17] = I.P., 200 mg/kg, 105 min post-injection
# [18] = I.P., 200 mg/kg, 75 min post-injection
# [19] = I.P., 200 mg/kg, 135 min post-injection
smiles,measurement,setting,value
"CCCCCCCC(CCCCCCC)OP(=O)(O)O [(7,7)-PO4, 8-Pentadecanyl Phosphate]",Withdrawal latency (% of vehicle),"Male CD-1 mice; P.O., 200 mg/kg, 45 min post-administration",93% of vehicle
same,Withdrawal latency (% of vehicle),"Male CD-1 mice; P.O., 200 mg/kg, 75 min post-administration",94% of vehicle
same,Withdrawal latency (% of vehicle),"Male CD-1 mice; P.O., 200 mg/kg, 105 min post-administration",124% of vehicle
same,Withdrawal latency (% of vehicle),"Male CD-1 mice; P.O., 200 mg/kg, 135 min post-administration",133% of vehicle
same,Withdrawal latency (% of vehicle),"Male CD-1 mice; P.O., 200 mg/kg, 285 min post-administration",162% of vehicle
same,Withdrawal latency (% of vehicle),"Male CD-1 mice; P.O., 200 mg/kg, 345 min post-administration",129% of vehicle
"CCCCCCCCCCCCCCCCCC(=O)OC[C@H](COP(=O)([O-])OCC[N+](C)(C)C)OC(=O)C(CCC)CCCCCCC (stereo partly shown) [DP-M(3,7), 1-O-stearoyl-2-propylnonayl-sn-glycero-3-phosphocholine]",Withdrawal latency (% of vehicle),Male CD-1 mice; [1],132% of vehicle
same,Withdrawal latency (% of vehicle),Male CD-1 mice; [2],123% of vehicle
same,Withdrawal latency (% of vehicle),Male CD-1 mice; [3],119% of vehicle
same,Withdrawal latency (% of vehicle),Male CD-1 mice; [4],102% of vehicle
same,Withdrawal latency (% of vehicle),Male CD-1 mice; [5],112% of vehicle
same,Withdrawal latency (% of vehicle),Male CD-1 mice; [6],119% of vehicle
same,Withdrawal latency (% of vehicle),Male CD-1 mice; [7],114% of vehicle
same,Withdrawal latency (% of vehicle),Male CD-1 mice; [8],127% of vehicle
same,Withdrawal latency (% of vehicle),Male CD-1 mice; [9],156% of vehicle
same,Withdrawal latency (% of vehicle),Male CD-1 mice; [10],124% of vehicle
same,Withdrawal latency (% of vehicle),Male CD-1 mice; [11],114% of vehicle
same,Withdrawal latency (% of vehicle),Male CD-1 mice; [12],126% of vehicle
same,Withdrawal latency (% of vehicle),Male CD-1 mice; [13],127% of vehicle
same,Withdrawal latency (% of vehicle),Male CD-1 mice; [14],125% of vehicle
"CCCCCCCCCCCCCCCCCC(=O)OC[C@H](COP(=O)([O-])OCC[N+](C)(C)C)OC(=O)C(CCC)CCCCCCCCCC (stereo partly shown) [DP-M(3,10), 1-O-stearoyl-2-propyldodecanoyl-sn-glycero-3-phosphocholine]",Withdrawal latency (% of vehicle),Male CD-1 mice; [1],123% of vehicle
same,Withdrawal latency (% of vehicle),Male CD-1 mice; [2],119% of vehicle
same,Withdrawal latency (% of vehicle),Male CD-1 mice; [3],113% of vehicle
same,Withdrawal latency (% of vehicle),Male CD-1 mice; [4],123% of vehicle
same,Withdrawal latency (% of vehicle),Male CD-1 mice; [5],123% of vehicle
same,Withdrawal latency (% of vehicle),Male CD-1 mice; [6],129% of vehicle
same,Withdrawal latency (% of vehicle),Male CD-1 mice; [7],107% of vehicle
"CCCCCCCCCCCCCCCCCC(=O)OC[C@H](COP(=O)([O-])OCC[N+](C)(C)C)OC(=O)C(CCCCC)CCCCC [DP-M(5,5), 1-O-stearoyl-2-pentylheptonayl-sn-glycero-3-phosphocholine]",Withdrawal latency (% of vehicle),Male CD-1 mice; [1],113% of vehicle
same,Withdrawal latency (% of vehicle),Male CD-1 mice; [2],107% of vehicle
same,Withdrawal latency (% of vehicle),Male CD-1 mice; [3],118% of vehicle
same,Withdrawal latency (% of vehicle),Male CD-1 mice; [4],142% of vehicle
same,Withdrawal latency (% of vehicle),Male CD-1 mice; [5],152% of vehicle
same,Withdrawal latency (% of vehicle),Male CD-1 mice; [6],121% of vehicle
same,Withdrawal latency (% of vehicle),Male CD-1 mice; [7],124% of vehicle
same,Withdrawal latency (% of vehicle),Male CD-1 mice; [8],148% of vehicle
same,Withdrawal latency (% of vehicle),Male CD-1 mice; [9],143% of vehicle
same,Withdrawal latency (% of vehicle),Male CD-1 mice; [10],148% of vehicle
same,Withdrawal latency (% of vehicle),Male CD-1 mice; [11],162% of vehicle
same,Withdrawal latency (% of vehicle),Male CD-1 mice; [12],171% of vehicle
same,Withdrawal latency (% of vehicle),Male CD-1 mice; [13],155% of vehicle
same,Withdrawal latency (% of vehicle),Male CD-1 mice; [14],124% of vehicle
same,dose dependence of analgesic effect,"Male CD-1 mice; i.p. 25, 50, 100 mg/kg (FIG. 1)",dose dependent
same,"size of analgesic effect, ranking among tested compounds",Male CD-1 mice,largest analgesic effects
"CCCCCCCC(CCC)C(=O)O (stereo not shown) [M(3,7), 2-Propylnonanoic acid]",Withdrawal latency (% of vehicle),"Male CD-1 mice; I.P., 150 mg/kg, 15 min post-injection",157% of vehicle
same,Withdrawal latency (% of vehicle),"Male CD-1 mice; I.P., 150 mg/kg, 45 min post-injection",137% of vehicle
same,Withdrawal latency (% of vehicle),"Male CD-1 mice; I.P., 150 mg/kg, 75 min post-injection",106% of vehicle
same,Withdrawal latency (% of vehicle),"Male CD-1 mice; I.P., 150 mg/kg, 105 min post-injection",131% of vehicle
"CCCCCCCCCCC(CCC)C(=O)O (stereo not shown) [M(3,10), 2-Propyldodecanoic acid]",Withdrawal latency (% of vehicle),Male CD-1 mice; [8],142% of vehicle
same,Withdrawal latency (% of vehicle),Male CD-1 mice; [9],155% of vehicle
same,Withdrawal latency (% of vehicle),Male CD-1 mice; [10],131% of vehicle
same,Withdrawal latency (% of vehicle),Male CD-1 mice; [11],156% of vehicle
same,Withdrawal latency (% of vehicle),Male CD-1 mice; [12],123% of vehicle
same,Withdrawal latency (% of vehicle),Male CD-1 mice; [15],186% of vehicle
same,Withdrawal latency (% of vehicle),Male CD-1 mice; [16],210% of vehicle
same,Withdrawal latency (% of vehicle),Male CD-1 mice; [17],183% of vehicle
same,"size of analgesic effect, ranking among tested compounds",Male CD-1 mice,largest analgesic effects
"CCCCCCCCCCC(CCC)C(=O)O (stereo not shown) [M(3,10)—Na, 2-Propyldodecanoic acid]",Withdrawal latency (% of vehicle),Male CD-1 mice; [1],151% of vehicle
same,Withdrawal latency (% of vehicle),Male CD-1 mice; [2],138% of vehicle
same,Withdrawal latency (% of vehicle),Male CD-1 mice; [3],128% of vehicle
same,Withdrawal latency (% of vehicle),Male CD-1 mice; [4],123% of vehicle
same,Withdrawal latency (% of vehicle),Male CD-1 mice; [5],102% of vehicle
same,Withdrawal latency (% of vehicle),Male CD-1 mice; [8],181% of vehicle
same,Withdrawal latency (% of vehicle),Male CD-1 mice; [9],153% of vehicle
same,Withdrawal latency (% of vehicle),Male CD-1 mice; [10],121% of vehicle
same,Withdrawal latency (% of vehicle),Male CD-1 mice; [11],143% of vehicle
same,Withdrawal latency (% of vehicle),Male CD-1 mice; [12],148% of vehicle
same,Withdrawal latency (% of vehicle),Male CD-1 mice; [15],158% of vehicle
same,Withdrawal latency (% of vehicle),Male CD-1 mice; [16],220% of vehicle
same,Withdrawal latency (% of vehicle),Male CD-1 mice; [18],216% of vehicle
same,Withdrawal latency (% of vehicle),Male CD-1 mice; [17],141% of vehicle
same,Withdrawal latency (% of vehicle),Male CD-1 mice; [19],175% of vehicle
"CCCCCCCCCCCCCCCCCCC(CCC)C(=O)O (stereo not shown) [M(3,18), 2-Propyleicosanoic acid]",melting point,,55.6 to 57.4 °C
"CCCCCC(CCCCC)C(=O)O [M(5,5), 2-Pentylheptanoic acid]",Withdrawal latency (% of vehicle),Male CD-1 mice; [15],161% of vehicle
same,Withdrawal latency (% of vehicle),Male CD-1 mice; [16],135% of vehicle
same,Withdrawal latency (% of vehicle),Male CD-1 mice; [18],145% of vehicle
same,Withdrawal latency (% of vehicle),Male CD-1 mice; [17],158% of vehicle
same,"size of analgesic effect, ranking among tested compounds",Male CD-1 mice,largest analgesic effects
"CCCCCC(CCCCC)C(=O)O [M(5,5)—Na, 2-Pentylheptanoic acid]",Withdrawal latency (% of vehicle),Male CD-1 mice; [1],115% of vehicle
same,Withdrawal latency (% of vehicle),Male CD-1 mice; [2],124% of vehicle
same,Withdrawal latency (% of vehicle),Male CD-1 mice; [3],117% of vehicle
same,Withdrawal latency (% of vehicle),Male CD-1 mice; [4],134% of vehicle
same,Withdrawal latency (% of vehicle),Male CD-1 mice; [8],137% of vehicle
same,Withdrawal latency (% of vehicle),Male CD-1 mice; [9],164% of vehicle
same,Withdrawal latency (% of vehicle),Male CD-1 mice; [10],164% of vehicle
same,Withdrawal latency (% of vehicle),Male CD-1 mice; [11],193% of vehicle
"CCCCCCCC(CCCCCCC)C(=O)O [M(7,7), 2-Heptylnonanoic acid]",Withdrawal latency (% of vehicle),Male CD-1 mice; [15],93% of vehicle
same,Withdrawal latency (% of vehicle),Male CD-1 mice; [16],124% of vehicle
same,Withdrawal latency (% of vehicle),Male CD-1 mice; [18],117% of vehicle
same,Withdrawal latency (% of vehicle),Male CD-1 mice; [17],149% of vehicle
same,Withdrawal latency (% of vehicle),Male CD-1 mice; [19],124% of vehicle
"CN1CC[C@]23c4c5ccc(O)c4O[C@H]2[C@@H](O)C=C[C@H]3[C@H]1C5 [Morphine, reference compound]",Withdrawal latency (% of vehicle),"Male CD-1 mice; I.P., 1 mg/kg, 15 min post-injection",97% of vehicle
same,Withdrawal latency (% of vehicle),"Male CD-1 mice; I.P., 1 mg/kg, 45 min post-injection",136% of vehicle
same,Withdrawal latency (% of vehicle),"Male CD-1 mice; I.P., 1 mg/kg, 75 min post-injection",207% of vehicle
same,Withdrawal latency (% of vehicle),"Male CD-1 mice; I.P., 1 mg/kg, 105 min post-injection",179% of vehicle
same,Withdrawal latency (% of vehicle),"Male CD-1 mice; I.P., 1 mg/kg, 255 min post-injection",142%** % of vehicle
same,Withdrawal latency (% of vehicle),"Male CD-1 mice; I.P., 10 mg/kg, 15 min post-injection",139% of vehicle
same,Withdrawal latency (% of vehicle),"Male CD-1 mice; I.P., 10 mg/kg, 45 min post-injection",171% of vehicle
same,Withdrawal latency (% of vehicle),"Male CD-1 mice; I.P., 10 mg/kg, 75 min post-injection",284% of vehicle
same,Withdrawal latency (% of vehicle),"Male CD-1 mice; I.P., 10 mg/kg, 105 min post-injection",238% of vehicle
same,Withdrawal latency (% of vehicle),"Male CD-1 mice; I.P., 10 mg/kg, 255 min post-injection",151%** % of vehicle
